Test results published in PubChem BioAssay (NCI).
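The compound was tested at five concentrations on cells cultured in 96-well plates, with a 48-hour exposure period. TGI is the concentration that stops growth completely.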

Key:
Assay in all cases: NCI-60 cell line screen, 48 h
RPMI-8226 leukemia = test system: RPMI-8226 leukemia
SF-295 CNS = test system: SF-295 CNS
NCI-H460 lung = test system: NCI-H460 lung
SK-MEL-5 melanoma = test system: SK-MEL-5 melanoma
KM12 colon = test system: KM12 colon
OVCAR-3 ovarian = test system: OVCAR-3 ovarian
OVCAR-8 ovarian = test system: OVCAR-8 ovarian
SK-MEL-2 melanoma = test system: SK-MEL-2 melanoma
BT-549 breast = test system: BT-549 breast
MDA-N = test system: MDA-N
MDA-MB-435 = test system: MDA-MB-435
PC-3 prostate = test system: PC-3 prostate
U251 CNS = test system: U251 CNS
HT29 colon = test system: HT29 colon
MALME-3M melanoma = test system: MALME-3M melanoma
HL-60(TB) leukemia = test system: HL-60(TB) leukemia

## O=C1C(c2c(O)[nH]c3ccc(F)cc23)=Nc2ccccc21
RPMI-8226 leukemia
  TGI: > 100 µM
SF-295 CNS
  TGI: > 100 µM
NCI-H460 lung
  TGI: > 100 µM
SK-MEL-5 melanoma
  TGI: > 100 µM
KM12 colon
  TGI: > 100 µM
OVCAR-3 ovarian
  TGI: > 100 µM
OVCAR-8 ovarian
  TGI: 43.8 µM
SK-MEL-2 melanoma
  TGI: > 100 µM
BT-549 breast
  TGI: > 100 µM
MDA-N
  TGI: > 100 µM
MDA-MB-435
  TGI: > 100 µM
PC-3 prostate
  TGI: > 100 µM
U251 CNS
  TGI: 42.7 µM
HT29 colon
  TGI: > 100 µM
MALME-3M melanoma
  TGI: > 100 µM

## Nc1ncnc2c1ncn2[C@@H]1C[C@@H]1CO
RPMI-8226 leukemia
  TGI: > 100 µM
SF-295 CNS
  TGI: > 100 µM
NCI-H460 lung
  TGI: > 100 µM
KM12 colon
  TGI: > 100 µM
OVCAR-3 ovarian
  TGI: > 100 µM
OVCAR-8 ovarian
  TGI: > 100 µM
SK-MEL-2 melanoma
  TGI: > 100 µM
HL-60(TB) leukemia
  TGI: > 100 µM
BT-549 breast
  TGI: > 100 µM
MDA-N
  TGI: > 100 µM
MDA-MB-435
  TGI: > 100 µM
PC-3 prostate
  TGI: > 100 µM
U251 CNS
  TGI: > 100 µM
HT29 colon
  TGI: > 100 µM
MALME-3M melanoma
  TGI: > 100 µM

## CCC(C)OC(=O)/C(Br)=C1/OC(=O)c2ccccc2-c2ccccc21 (stereo not given)
RPMI-8226 leukemia
  TGI: 87.9 µM
SF-295 CNS
  TGI: > 100 µM
NCI-H460 lung
  TGI: 73.9 µM
SK-MEL-5 melanoma
  TGI: 56.2 µM
KM12 colon
  TGI: 61 µM
OVCAR-3 ovarian
  TGI: > 100 µM
OVCAR-8 ovarian
  TGI: > 100 µM
SK-MEL-2 melanoma
  TGI: > 100 µM
HL-60(TB) leukemia
  TGI: > 100 µM
BT-549 breast
  TGI: 37.1 µM
MDA-N
  TGI: > 100 µM
MDA-MB-435
  TGI: > 100 µM
PC-3 prostate
  TGI: > 100 µM
HT29 colon
  TGI: 84.5 µM
MALME-3M melanoma
  TGI: 80.6 µM

## COC(=O)c1cc2ccc(N)nc2[nH]c1=O
RPMI-8226 leukemia
  TGI: > 100 µM
SF-295 CNS
  TGI: > 100 µM
NCI-H460 lung
  TGI: > 100 µM
SK-MEL-5 melanoma
  TGI: > 100 µM
KM12 colon
  TGI: > 100 µM
OVCAR-3 ovarian
  TGI: > 100 µM
OVCAR-8 ovarian
  TGI: > 100 µM
SK-MEL-2 melanoma
  TGI: > 100 µM
BT-549 breast
  TGI: > 100 µM
MDA-N
  TGI: > 100 µM
MDA-MB-435
  TGI: > 100 µM
PC-3 prostate
  TGI: > 100 µM
U251 CNS
  TGI: > 100 µM
MALME-3M melanoma
  TGI: > 100 µM

## Cc1cc(S(=O)(=O)Nc2n[nH]c(N)n2)c(SCC(=O)O)cc1Cl
RPMI-8226 leukemia
  TGI: > 10 µM
SF-295 CNS
  TGI: > 10 µM
NCI-H460 lung
  TGI: > 10 µM
SK-MEL-5 melanoma
  TGI: > 10 µM
KM12 colon
  TGI: > 10 µM
OVCAR-3 ovarian
  TGI: > 10 µM
OVCAR-8 ovarian
  TGI: > 10 µM
SK-MEL-2 melanoma
  TGI: > 10 µM
HL-60(TB) leukemia
  TGI: > 10 µM
BT-549 breast
  TGI: > 10 µM
MDA-N
  TGI: > 10 µM
PC-3 prostate
  TGI: > 10 µM
U251 CNS
  TGI: > 10 µM
HT29 colon
  TGI: > 10 µM
MALME-3M melanoma
  TGI: > 10 µM

## O=C(O)C(NCc1ccccc1)C(NCc1ccccc1)C(=O)O (stereo not given)
RPMI-8226 leukemia
  TGI: > 100 µM
SF-295 CNS
  TGI: > 100 µM
NCI-H460 lung
  TGI: > 100 µM
SK-MEL-5 melanoma
  TGI: > 100 µM
KM12 colon
  TGI: > 100 µM
OVCAR-3 ovarian
  TGI: > 100 µM
OVCAR-8 ovarian
  TGI: > 100 µM
SK-MEL-2 melanoma
  TGI: > 100 µM
HL-60(TB) leukemia
  TGI: > 100 µM
BT-549 breast
  TGI: > 100 µM
MDA-N
  TGI: > 100 µM
MDA-MB-435
  TGI: > 100 µM
U251 CNS
  TGI: > 100 µM
HT29 colon
  TGI: > 100 µM
MALME-3M melanoma
  TGI: > 100 µM

## COc1ccc(C(OCC2OC(n3cc(C)c(=O)[nH]c3=O)CC2n2cc(Cn3cc(Cl)c(=O)[nH]c3=O)nn2)(c2ccccc2)c2ccccc2)cc1 (stereo not given)
RPMI-8226 leukemia
  TGI: > 100 µM
SF-295 CNS
  TGI: > 100 µM
SK-MEL-5 melanoma
  TGI: > 100 µM
KM12 colon
  TGI: > 100 µM
OVCAR-3 ovarian
  TGI: > 100 µM
OVCAR-8 ovarian
  TGI: > 100 µM
SK-MEL-2 melanoma
  TGI: > 100 µM
HL-60(TB) leukemia
  TGI: 6.99 µM
BT-549 breast
  TGI: > 100 µM
MDA-N
  TGI: > 100 µM
MDA-MB-435
  TGI: > 100 µM
PC-3 prostate
  TGI: > 100 µM
U251 CNS
  TGI: > 100 µM
HT29 colon
  TGI: > 100 µM
MALME-3M melanoma
  TGI: > 100 µM

## CC(=O)c1[nH]c(NCc2ccccc2)c(C(=S)Nc2ccccc2)c1N
SF-295 CNS
  TGI: 66 µM
NCI-H460 lung
  TGI: 56.5 µM
SK-MEL-5 melanoma
  TGI: 34.9 µM
KM12 colon
  TGI: 36.9 µM
OVCAR-3 ovarian
  TGI: 97.9 µM
OVCAR-8 ovarian
  TGI: 39.2 µM
SK-MEL-2 melanoma
  TGI: 1.07 µM
HL-60(TB) leukemia
  TGI: 35.3 µM
BT-549 breast
  TGI: 64.7 µM
MDA-N
  TGI: 39.1 µM
MDA-MB-435
  TGI: 33.9 µM
PC-3 prostate
  TGI: > 100 µM
U251 CNS
  TGI: 32.7 µM
HT29 colon
  TGI: > 100 µM
MALME-3M melanoma
  TGI: 38.6 µM

## O=Cc1[nH]c(=O)[nH]c(=O)c1C(=O)O
RPMI-8226 leukemia
  TGI: > 100 µM
SF-295 CNS
  TGI: > 100 µM
NCI-H460 lung
  TGI: > 100 µM
SK-MEL-5 melanoma
  TGI: > 100 µM
KM12 colon
  TGI: > 100 µM
OVCAR-3 ovarian
  TGI: > 100 µM
OVCAR-8 ovarian
  TGI: > 100 µM
SK-MEL-2 melanoma
  TGI: > 100 µM
HL-60(TB) leukemia
  TGI: > 100 µM
MDA-N
  TGI: > 100 µM
MDA-MB-435
  TGI: > 100 µM
PC-3 prostate
  TGI: > 100 µM
U251 CNS
  TGI: > 100 µM
HT29 colon
  TGI: > 100 µM
MALME-3M melanoma
  TGI: > 100 µM

## O=[N+]([O-])c1ccc2c(c1)C1=C(CO2)Cc2ccccc2O1
RPMI-8226 leukemia
  TGI: > 100 µM
SF-295 CNS
  TGI: > 100 µM
SK-MEL-5 melanoma
  TGI: 29.7 µM
KM12 colon
  TGI: 39.3 µM
OVCAR-3 ovarian
  TGI: 41.6 µM
OVCAR-8 ovarian
  TGI: > 100 µM
SK-MEL-2 melanoma
  TGI: > 100 µM
BT-549 breast
  TGI: 61.9 µM
MDA-N
  TGI: 33.1 µM
MDA-MB-435
  TGI: 80.5 µM
PC-3 prostate
  TGI: 38.6 µM
U251 CNS
  TGI: 36.2 µM
HT29 colon
  TGI: 88 µM
MALME-3M melanoma
  TGI: 70.4 µM

## CSc1nc(Nc2cccc(C(F)(F)F)c2)c2c(N)nn(C)c2n1
RPMI-8226 leukemia
  TGI: > 100 µM
SF-295 CNS
  TGI: > 100 µM
NCI-H460 lung
  TGI: > 100 µM
SK-MEL-5 melanoma
  TGI: > 100 µM
KM12 colon
  TGI: > 100 µM
OVCAR-3 ovarian
  TGI: > 100 µM
OVCAR-8 ovarian
  TGI: > 100 µM
SK-MEL-2 melanoma
  TGI: > 100 µM
BT-549 breast
  TGI: > 100 µM
MDA-N
  TGI: > 100 µM
MDA-MB-435
  TGI: > 100 µM
PC-3 prostate
  TGI: > 100 µM
U251 CNS
  TGI: > 100 µM
HT29 colon
  TGI: > 100 µM
MALME-3M melanoma
  TGI: > 100 µM

## CCCCNC(=S)Nc1nc(C(=O)NNC(=S)Nc2ccccc2)cs1
RPMI-8226 leukemia
  TGI: > 100 µM
SF-295 CNS
  TGI: > 100 µM
NCI-H460 lung
  TGI: > 100 µM
SK-MEL-5 melanoma
  TGI: > 100 µM
KM12 colon
  TGI: > 100 µM
OVCAR-3 ovarian
  TGI: > 100 µM
OVCAR-8 ovarian
  TGI: > 100 µM
SK-MEL-2 melanoma
  TGI: > 100 µM
BT-549 breast
  TGI: > 100 µM
MDA-N
  TGI: > 100 µM
MDA-MB-435
  TGI: > 100 µM
PC-3 prostate
  TGI: > 100 µM
U251 CNS
  TGI: 48.3 µM
HT29 colon
  TGI: > 100 µM

## Cc1c(N=Nc2ccc(Cl)cc2)c(-c2ccccc2)n(C2OC(CO)C(O)C(O)C2O)c(=S)c1C#N (stereo not given)
RPMI-8226 leukemia
  TGI: > 100 µM
SF-295 CNS
  TGI: 73.9 µM
NCI-H460 lung
  TGI: 51.7 µM
SK-MEL-5 melanoma
  TGI: 25.8 µM
KM12 colon
  TGI: 35.4 µM
OVCAR-3 ovarian
  TGI: 32.5 µM
SK-MEL-2 melanoma
  TGI: 37.5 µM
HL-60(TB) leukemia
  TGI: > 100 µM
BT-549 breast
  TGI: 29.5 µM
MDA-N
  TGI: 35.9 µM
MDA-MB-435
  TGI: 22.2 µM
PC-3 prostate
  TGI: 22.4 µM
U251 CNS
  TGI: 25.3 µM
HT29 colon
  TGI: 33.7 µM
MALME-3M melanoma
  TGI: 46.4 µM

## COc1cc2c(C)cc(O)cc2c2cc(O)c(C)cc12
RPMI-8226 leukemia
  TGI: 6.64 µM
SF-295 CNS
  TGI: 23.8 µM
NCI-H460 lung
  TGI: 9.73 µM
SK-MEL-5 melanoma
  TGI: 20.3 µM
KM12 colon
  TGI: 20.2 µM
OVCAR-3 ovarian
  TGI: 22.3 µM
OVCAR-8 ovarian
  TGI: 40.2 µM
SK-MEL-2 melanoma
  TGI: 31.3 µM
HL-60(TB) leukemia
  TGI: 13 µM
BT-549 breast
  TGI: 23 µM
MDA-N
  TGI: 20 µM
MDA-MB-435
  TGI: 19.2 µM
PC-3 prostate
  TGI: 19 µM
U251 CNS
  TGI: 21.3 µM
HT29 colon
  TGI: 45.8 µM

## N#Cc1c(N)n(-c2cccc(C(=O)O)c2)c(=O)c2cc([N+](=O)[O-])ccc12
RPMI-8226 leukemia
  TGI: > 100 µM
NCI-H460 lung
  TGI: > 100 µM
SK-MEL-5 melanoma
  TGI: > 100 µM
KM12 colon
  TGI: > 100 µM
OVCAR-8 ovarian
  TGI: > 100 µM
SK-MEL-2 melanoma
  TGI: > 100 µM
HL-60(TB) leukemia
  TGI: > 100 µM
BT-549 breast
  TGI: > 100 µM
MDA-N
  TGI: > 100 µM
MDA-MB-435
  TGI: > 100 µM
PC-3 prostate
  TGI: > 100 µM
U251 CNS
  TGI: > 100 µM
HT29 colon
  TGI: > 100 µM
